According to the supplement of paper PMC10307832:

What was measured:
Experiment in all cases: relative viability (nuclei count vs DMSO), 5 days (fraction); higher = more cells survive
Zosuquidar + Vorinostat = compound: O[C@@H](COc1cccc2ncccc12)CN1CCN([C@@H]2c3ccccc3[C@@H]3[C@H](c4ccccc42)C3(F)F)CC1 [Zosuquidar] + O=C(CCCCCCC(=O)Nc1ccccc1)NO [Vorinostat] (partner 1 µM)
Outline: (§1)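 For relative viability, nuclei counts in treated wells were divided by those in vehicle wells. Lung cancer cell lines had been pin-tool dosed in 1536-well plates the day after seeding and cultured for 5 days, then fixed and stained in one step (final 0.05% Triton X-100, 1% formaldehyde, 1 ug/ml Hoechst) and imaged at 4×. Doses were one drug alone or a fixed anchor-drug dose plus five library-drug doses (not always all listed) in √10 steps, and values are duplicate-plate medians.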

Kobe2602 + Luminespib = compound: C1=CC(=CC=C1NC(=S)NNC2=C(C=C(C=C2[N+](=O)[O-])C(F)(F)F)[N+](=O)[O-])F [Kobe2602] + CCNC(=O)c1noc(-c2cc(C(C)C)c(O)cc2O)c1-c1ccc(CN2CCOCC2)cc1 [Luminespib] (partner 0.01 µM)
Outline: as §1

Zosuquidar + Pictilisib = compound: O[C@@H](COc1cccc2ncccc12)CN1CCN([C@@H]2c3ccccc3[C@@H]3[C@H](c4ccccc42)C3(F)F)CC1 [Zosuquidar] + CS(=O)(=O)N1CCN(Cc2cc3nc(-c4cccc5[nH]ncc45)nc(N4CCOCC4)c3s2)CC1 [Pictilisib] (partner 1 µM)
Outline: as §1

[1] = compound: COc1cc2nccc(Oc3ccc(NC(=O)C4(C(=O)Nc5ccc(F)cc5)CC4)cc3)c2cc1OC [Cabozantinib] + O=C(CCCCCCC(=O)Nc1ccccc1)NO [Vorinostat] (partner 1 µM)
Outline: as §1

Cell Line | relative viability (Zosuquidar + Vorinostat; first compound 0.01 µM) | relative viability (Zosuquidar + Vorinostat; first compound 0.03162 µM) | relative viability (Zosuquidar + Vorinostat; first compound 0.1 µM) | relative viability (Zosuquidar + Vorinostat; first compound 0.3162 µM) | relative viability (Zosuquidar + Vorinostat; first compound 1 µM) | relative viability (Kobe2602 + Luminespib; first compound 0.2 µM) | relative viability (Kobe2602 + Luminespib; first compound 0.6325 µM) | relative viability (Kobe2602 + Luminespib; first compound 2 µM) | relative viability (Kobe2602 + Luminespib; first compound 6.325 µM) | relative viability (Kobe2602 + Luminespib; first compound 20 µM) | relative viability (Zosuquidar + Pictilisib; first compound 0.01 µM) | relative viability (Zosuquidar + Pictilisib; first compound 0.03162 µM) | relative viability (Zosuquidar + Pictilisib; first compound 0.1 µM) | relative viability (Zosuquidar + Pictilisib; first compound 0.3162 µM) | relative viability (Zosuquidar + Pictilisib; first compound 1 µM) | relative viability ([1]; first compound 0.02 µM) | relative viability ([1]; first compound 0.06325 µM) | relative viability ([1]; first compound 0.2 µM) | relative viability ([1]; first compound 0.6325 µM) | relative viability ([1]; first compound 2 µM)
LXF-289 | 0.727 | 0.759 | 0.72 | 0.788 | 0.78 | 0.7 | 0.799 | 0.637 | 0.606 | 0.708 | 0.767 | 0.776 | 0.747 | 0.818 | 0.781 | 0.755 | 0.765 | 0.659 | 0.738 | 0.756
NCI-H23 | 0.536 | – | 0.57 | 0.695 | 0.662 | 0.248 | 0.201 | 0.227 | 0.214 | 0.202 | 0.479 | 0.525 | 0.393 | 0.574 | 0.496 | – | 0.794 | 0.553 | 0.631 | 0.551
NCI-H322M | 0.916 | 1.08 | 0.652 | 0.896 | 0.731 | 0.895 | 0.944 | 0.855 | 0.478 | 1.06 | 0.494 | 0.577 | 0.371 | 0.519 | 0.534 | 0.897 | 1.1 | 0.894 | 0.894 | 0.917
NCI-H358 | 0.662 | 0.8 | 0.634 | 0.646 | 0.639 | 0.364 | 0.324 | 0.237 | 0.477 | 0.349 | 0.339 | 0.349 | 0.218 | 0.366 | 0.304 | 0.683 | 0.905 | 0.556 | 0.623 | 0.534
NCI-H441 | 0.666 | 0.97 | 0.728 | 0.867 | 0.962 | 0.328 | 0.374 | 0.327 | 0.358 | 0.296 | 0.449 | 0.435 | 0.512 | – | 0.595 | 0.782 | 0.922 | 0.882 | 0.794 | 0.845
NCI-H460 | 0.658 | 0.747 | 0.687 | 0.776 | 0.739 | 0.0275 | 0.0348 | 0.0337 | 0.0344 | 0.0251 | 0.326 | 0.393 | 0.27 | 0.437 | 0.393 | 0.893 | 0.818 | 0.68 | 0.635 | 0.741
NCI-H520 | 0.639 | 0.51 | 0.71 | 0.664 | 0.835 | 0.256 | 0.193 | 0.224 | 0.206 | 0.215 | 0.327 | 0.295 | 0.289 | 0.363 | 0.297 | 0.719 | 0.64 | 0.715 | 0.598 | 0.688
NCI-H596 | 0.555 | 0.637 | 0.709 | 0.761 | 0.661 | 1.03 | 0.922 | 1.03 | 0.844 | 0.873 | 0.439 | 0.432 | 0.36 | 0.401 | 0.414 | 0.628 | 0.812 | 0.677 | 1.5 | 0.6
NCI-H647 | 0.623 | 0.593 | 0.667 | 0.814 | 0.518 | 0.259 | 0.188 | 0.152 | 0.112 | 0.225 | 0.493 | 0.316 | 0.463 | 0.4 | 0.466 | 0.621 | 0.734 | 0.696 | 0.43 | 0.496
NCI-H650 | 0.452 | 0.414 | 0.397 | 0.577 | 0.435 | 0.754 | 0.897 | 0.796 | 0.748 | 0.717 | 0.787 | 0.789 | – | 1.05 | 0.942 | 0.412 | 0.489 | 0.458 | 0.721 | 0.414
NCI-H661 | 0.802 | 0.834 | 0.763 | 0.828 | 0.778 | 0.945 | 0.904 | 0.948 | 0.946 | 0.9 | 0.351 | 0.419 | – | 0.404 | 0.361 | 0.783 | 0.856 | 0.879 | 0.809 | 0.935
NCI-H727 | 1.12 | 1.32 | – | 1.11 | 1.29 | 0.581 | 0.516 | 0.4 | 0.407 | 0.414 | 0.36 | 0.555 | 0.228 | 0.391 | 0.506 | 0.935 | 1.36 | 1.23 | 1.28 | 1.22
NCI-H838 | 0.744 | 0.793 | 0.791 | 0.755 | 0.806 | 0.353 | 0.395 | 0.308 | 0.268 | 0.278 | 0.423 | 0.428 | 0.284 | 0.488 | 0.441 | 0.744 | 0.765 | 0.713 | 0.665 | 0.667
NCI-H1355 | 0.621 | 0.644 | 0.602 | 0.652 | 0.669 | 0.795 | 0.686 | 0.607 | 0.775 | 0.75 | 0.427 | 0.375 | 0.354 | 0.546 | 0.476 | 0.659 | 0.754 | 0.6 | 0.635 | 0.625
NCI-H1395 | 0.746 | 0.783 | – | 1 | 0.698 | 0.691 | 0.869 | 0.815 | 0.726 | 0.662 | 0.574 | 0.556 | 0.52 | 0.683 | 0.809 | 0.623 | 0.831 | 0.703 | 0.685 | 0.656
NCI-H1437 | 0.849 | 0.957 | 0.851 | 0.857 | 0.832 | 1.12 | 1.11 | 1.1 | 1.14 | 0.984 | 0.464 | 0.411 | 0.453 | 0.628 | 0.506 | 0.931 | 0.984 | 0.925 | 0.809 | 0.715
